Data taken from patent US8338445B2, “Crystal form of cabergoline” (Lek Pharmaceuticals D.D., priority 2007, dated 2012).

Tests used:
[1] = Residual solvents after comparable drying of crystal forms; assay type: physicochemical; conditions: after drying at 35° C. at 5 mBar for 48 h; both forms isolated from same solvent mixture
Experimental: Cabergoline from L isolated by the process of the invention can be washed by cold aliphatic hydrocarbons or digesting previously isolated material in a suspension of aliphatic hydrocarbons preferably heptane to remove impurities and finally dried in vacuo at temperature from 20 to 80° C., preferably from 30 to 50° C., preferably 30 to 40° C. to remove residual solvents. […] Form L and form I are isolated from the same solvent mixture, but form I is captured as an early precipitate as described in Example B and contains below 5% of form L. Solvents are easier removed if cabergoline is in the form of needles.
6.1 g of cabergoline obtained in example 1 were dissolved in 12 ml of 2-chlorotoluene by agitating at room temperature. The solution was cooled down to −30° C. while stirring. The gel-like material was formed after 60 minutes. Furthermore 150 ml of n-heptane were added and let stirring 1 hour at −20° C. Further the solvent was exchanged with 100 ml of fresh n-heptane, precooled to −20° C. and let stirring 1 hour at −20° C. Afterwards the temperature was slowly raising to 0° C. (0.5 K/min) and small samples were analyzed.

[2] = Particle size distribution by the Malvern method; assay type: physicochemical
Experimental: Physically pure cabergoline form L is isolated in a form of fine needles what is shown in the SEM picture. Average shorter axis of the needles is below 10 μm. Milling of cabergoline form L isolated by the process of the invention by a hammer mill gives particle size distribution d 0.9 below 10 μm.
6.1 g of cabergoline obtained in Example 1 were dissolved in 12 ml of 2-chlorotoluene by agitating at room temperature. The solution was cooled down to −30° C. while stirring. The gel-like material was formed after 60 minutes. Furthermore 150 ml of n-heptane were added and let stirring 1 hour at −20° C. Further the solvent was exchanged with 100 ml of fresh n-heptane, precooled to −20° C. and let stirring 1 hour at −20° C. Afterwards the temperature was raised to 10° C. (0.5 K/min) and further stirred for 1 hour, The temperature was raised to 20° C. (0.5 K/min) followed by stirring for 5 hour. The obtained dense suspension was filtered and washed with 50 ml of n-heptane and dried at 40° C. and 5 mbar for 24 hours. The obtained needle-like product (5.5 g) was identified as cabergoline form L. Particle size distribution of the product of Example 2 is the following: d 0.1=0.4 um; d 0.5=4.2 um; d 0.9=33 um.
Particle size distribution was measured by the Malvern method.

| residual solvent 2-Chlorotoluene [1] [ppm] | residual solvent Heptane [1] [ppm] | particle size distribution d 0.9 ([2]; after milling by a hammer mill) | Particle size distribution d 0.1 ([2]; product of Example 2, unmilled) [um] | Particle size distribution d 0.5 ([2]; product of Example 2, unmilled) [um] | particle size distribution d 0.9 ([2]; product of Example 2, unmilled) [um] | SMILES |
| --- | --- | --- | --- | --- | --- | --- |
| 333 | 764 |  |  |  |  | C=CCN1C[C@H](C(=O)N(CCCN(C)C)C(=O)NCC)C[C@@H]2c3cccc4[nH]cc(c34)C[C@H]21 [Cabergoline form I, 1-((6-allylergolin-8β-yl)-carbonyl)-1-(3-dimethylaminopropyl)-3-ethylurea, reference compound] |
| 236 | 186 | below 10 μm | 0.4 | 4.2 | 33 | C=CCN1C[C@H](C(=O)N(CCCN(C)C)C(=O)NCC)C[C@@H]2c3cccc4[nH]cc(c34)C[C@H]21 [Cabergoline form L, 1-((6-allylergolin-8β-yl)-carbonyl)-1-(3-dimethylaminopropyl)-3-ethylurea] |
